Molecules are shown by their SMILES. pEC50: −log10 of the molar value.

What is called pEC50 is the EC50 on a negative log10 scale, so that one unit is a factor of ten.

This test deals with RSV. Put plainly: Potency range (EC50 values) of C series compounds against RSV. Format: cell-based. The settings on record: human respiratory syncytial virus. The method, then:
Two-fold serial dilutions of hit candidates were prepared in 384-well plates in three replicates each using the Nimbus liquid handler. BEAS-2B cells (8×10^3/well) were then plated as before, serial dilutions transferred using the pin-tool, and cells infected with recombinant virus strains expressing distinct luciferase reporter proteins or left uninfected for cell viability assessment. Reporter signals were recorded as outlined above. To determine cell viability, PrestoBlue substrate (life technologies) was added after 40-hour incubation of cells at 37° C. (5 μl/well) and top-read fluorescence (excitation 560 nm; emission 590 nm; instrument gain 85) recorded after 45 minutes of incubation at 37° C. using the H1 synergy plate reader. Four-parameter variable slope regression modeling was applied to determine 50% active (EC50) and toxic (CC50) concentrations.
Turning to `CC(C)(C)NC(=O)C1Sc2ccccc2N(CC(=O)NC2CCCCC2)C1=O` (centres unmarked) [AVG-141], the pEC50 was 5.00 to 6.00.

In the case of `O=C(C1Sc2ccccc2N(Cc2nc3ccccc3[nH]2)C1=O)N1CCCCC1` (centres unmarked) [AVG-112], the pEC50 is 4.70 to 5.00.

`O=C(CN1C(=O)C(C(=O)N2CCCCC2)Sc2ccccc21)Nc1ccccc1Cl` (centres unmarked) [AVG-220]: the pEC50 is 5.00 to 6.00.

In the case of `CN(C(=O)CN1C(=O)C(C(=O)N2CCCCC2)Sc2ccccc21)C1CCCCC1` (centres unmarked) [AVG-059], the pEC50 is less than 4.70.

With `CC(C)(NC(=O)C1Sc2ccccc2N(CC(=O)NC2CCCCC2)C1=O)c1ccccc1` (centres unmarked) [AVG-144], the negative logarithm of the EC50 (pEC50) was 5.00 to 6.00.

In the case of `Cc1ccc2c(c1)SC(C(=O)N1CCCCC1)C(=O)N2CC(=O)NC1CCCCC1` (centres unmarked) [AVG-151], the pEC50 was 4.70 to 5.00.

For the molecule `COc1ccccc1NC(=O)CN1C(=O)C(C(=O)N2CCCCC2)Sc2ccccc21` (centres unmarked) [AVG-221], the pEC50 is 5.00 to 6.00.

On to `O=C(CN1C(=O)C(C(=O)N2CCCCC2)Sc2ccccc21)Nc1cccnc1` (centres unmarked) [AVG-223], for which the pEC50 was 4.70 to 5.00.

Take `CN1CCC(NC(=O)CN2C(=O)C(C(=O)N3CCCCC3)Sc3ccccc32)CC1` (centres unmarked) [AVG-047]: the pEC50 was less than 4.70.

On to `CCc1ccc2c(c1)SC(C(=O)N1CCCCC1)C(=O)N2CC(=O)NC1CCCCC1` (centres unmarked) [AVG-152], for which the pEC50 is 5.00 to 6.00.

As for `O=C(CN1C(=O)C(C(=O)NC2CCCCC2)Sc2ccccc21)NC1CCCCC1` (centres unmarked) [AVG-058], the negative logarithm of the EC50 (pEC50) is 5.00 to 6.00.

For `CC(NC(=O)C1Sc2ccccc2N(CC(=O)NC2CCCCC2)C1=O)c1ccccc1` (centres unmarked) [AVG-143], the pEC50 was less than 4.70.

As for `O=C(CN1C(=O)C(C(=O)N2CCCCC2)Sc2cc(Cl)ccc21)NC1CCCCC1` (centres unmarked) [AVG-062], the pEC50 was 6.00 to 7.00.

Turning to `COc1ccc2c(c1)SC(C(=O)N1CCCCC1)C(=O)N2CC(=O)NC1CCCCC1` (centres unmarked) [AVG-146], the pEC50 was 5.00 to 6.00.

Take `CC1(C)CCC(NC(=O)CN2C(=O)C(C(=O)N3CCCCC3)Sc3ccccc32)CC1` (centres unmarked) [AVG-050]: the pEC50 was 5.00 to 6.00.

Take `O=C(CN1C(=O)C(C(=O)N2CCCCC2)Sc2cnccc21)NC1CCCCC1` (centres unmarked) [AVG-155]: the pEC50 is 5.00 to 6.00.

Turning to `O=C(CN1C(=O)C(C(=O)NC2CCCCC2)Sc2cc(Cl)ccc21)NC1CCCCC1` (centres unmarked) [AVG-218], the pEC50 was 5.00 to 6.00.

Regarding `CC(C)(NC(=O)CN1C(=O)C(C(=O)N2CCCCC2)Sc2ccccc21)c1ccccc1` (centres unmarked) [AVG-139], the pEC50 was 5.00 to 6.00.

Turning to `O=C(CN1C(=O)C(C(=O)NC2CCNCC2)Sc2ccccc21)NC1CCCCC1` (centres unmarked) [AVG-084], the pEC50 was less than 4.70.

Regarding `CN(C)C(=O)C1Sc2ccccc2N(CC(=O)NC2CCCCC2)C1=O` (centres unmarked) [AVG-057], the pEC50 was 5.00 to 6.00.

On to `Cc1ccccc1NC(=O)CN1C(=O)C(C(=O)N2CCCCC2)Sc2cc(Cl)ccc21` (centres unmarked) [AVG-219], for which the pEC50 was 6.00 to 7.00.

`O=C(CN1C(=O)C(C(=O)N2CCCCC2)Sc2ccccc21)NC1CCNCC1` (centres unmarked) [AVG-046]: the pEC50 is less than 4.70.

Regarding `O=C(CN1C(=O)C(C(=O)N2CCCCC2)Sc2cc(-c3ccccc3)ccc21)NC1CCCCC1` (centres unmarked) [AVG-154], the pEC50 is less than 4.70.

For `O=C(CN1C(=O)C(C(=O)N2CCNCC2)Sc2ccccc21)NC1CCCCC1` (centres unmarked) [AVG-055], the pEC50 was less than 4.70.

Consider `O=C(CN1C(=O)C(C(=O)N2CCCCC2)Sc2ccccc21)NC1CCOCC1` (centres unmarked) [AVG-045], for which the pEC50 is less than 4.70.

On to `CC(C)NC(=O)C1Sc2ccccc2N(CC(=O)NC2CCCCC2)C1=O` (centres unmarked) [AVG-087], for which the pEC50 was 4.70 to 5.00.

In the case of `Cc1cccc(NC(=O)CN2C(=O)C(C(=O)N3CCCCC3)Sc3ccccc32)c1` (centres unmarked) [AVG-053], the pEC50 was less than 4.70.

As to `O=C(CN1C(=O)C(C(=O)NC2CCOCC2)Sc2ccccc21)NC1CCCCC1` (centres unmarked) [AVG-083], the pEC50 was less than 4.70.

With `O=C(CN1C(=O)C(C(=O)N2CCCCC2)Sc2ccccc21)NCc1ccccc1` (centres unmarked) [AVG-137], the pEC50 was 5.00 to 6.00.

In the case of `O=C(CN1C(=O)C(C(=O)N2CCCCC2)Sc2ccccc21)NC1CC1` (centres unmarked) [AVG-114], the pEC50 is less than 4.70.

Take `CC(C)NC(=O)CN1C(=O)C(C(=O)N2CCCCC2)Sc2ccccc21` (centres unmarked) [AVG-048]: the pEC50 was less than 4.70.

Take `O=C(CN1C(=O)C(C(=O)N2CCCCC2)Sc2ccc(Cl)cc21)NC1CCCCC1` (centres unmarked) [AVG-063]: the pEC50 was 5.00 to 6.00.

On to `CN1CCN(C(=O)C2Sc3ccccc3N(CC(=O)NC3CCCCC3)C2=O)CC1` (centres unmarked) [AVG-056], for which the pEC50 is 4.70 to 5.00.

Consider `O=C(CN1C(=O)C(C(=O)N2CCCCC2)Sc2ccccc21)N1CCCCC1` (centres unmarked) [AVG-060], for which the pEC50 is less than 4.70.

As to `COc1ccc2c(c1)N(CC(=O)NC1CCCCC1)C(=O)C(C(=O)N1CCCCC1)S2` (centres unmarked) [AVG-147], the negative logarithm of the EC50 (pEC50) was 4.70 to 5.00.

`O=C(CN1C(=O)C(C(=O)N2CCCCC2)Sc2ccccc21)NC1CCCC1` (centres unmarked) [AVG-051]: the pEC50 is 5.00 to 6.00.

Regarding `O=C(CN1C(=O)C(C(=O)N2CCCCC2)Sc2cc(Br)ccc21)NC1CCCCC1` (centres unmarked) [AVG-149], the pEC50 was 5.00 to 6.00.

`CC(C)(C)NC(=O)CN1C(=O)C(C(=O)N2CCCCC2)Sc2ccccc21` (centres unmarked) [AVG-140]: the pEC50 was 5.00 to 6.00.

Take `Cc1ccccc1NC(=O)CN1C(=O)C(C(=O)N2CCCCC2)Sc2ccccc21` (centres unmarked) [AVG-052]: the pEC50 was 5.00 to 6.00.

Take `O=C(CN1C(=O)C(C(=O)N2CCCCC2)Sc2cc(C(F)(F)F)ccc21)NC1CCCCC1` (centres unmarked) [AVG-156]: the pEC50 is 5.00 to 6.00.

For the molecule `O=C(CN1C(=O)C(C(=O)N2CCCCC2)Sc2cccc(Cl)c21)NC1CCCCC1` (centres unmarked) [AVG-064], the pEC50 was 4.70 to 5.00.

Regarding `O=C(CN1C(=O)C(C(=O)N2CCCCC2)Sc2cc(Cl)ccc21)NCC1CCCCC1` (centres unmarked) [AVG-217], the pEC50 was 5.00 to 6.00.

For `COc1cccc2c1N(CC(=O)NC1CCCCC1)C(=O)C(C(=O)N1CCCCC1)S2` (centres unmarked) [AVG-148], the pEC50 is 4.70 to 5.00.

With `O=C(CN1C(=O)C(C(=O)NCc2ccccc2)Sc2ccccc21)NC1CCCCC1` (centres unmarked) [AVG-142], the pEC50 is 4.70 to 5.00.

With `CC1CCC(NC(=O)CN2C(=O)C(C(=O)N3CCCCC3)Sc3ccccc32)CC1` (centres unmarked) [AVG-049], the pEC50 is 5.00 to 6.00.

`C=C(C)c1ccc2c(c1)SC(C(=O)N1CCCCC1)C(=O)N2CC(=O)NC1CCCCC1` (centres unmarked) [AVG-215]: the pEC50 is 5.00 to 6.00.

Consider `O=C(CN1C(=O)C(C(=O)N2CCCCC2)Sc2ccccc21)NC1CCCCC1` (centres unmarked) [AVG-044, N-cyclohexyl-2-(3-oxo-2-(piperidine-1-carbonyl)-2H-benzo[b][1,4]thiazin-4(3H)-yl) acetamide], for which the pEC50 was 5.00 to 6.00.

In the case of `CC(C)c1ccc2c(c1)SC(C(=O)N1CCCCC1)C(=O)N2CC(=O)NC1CCCCC1` (centres unmarked) [AVG-153], the pEC50 was 5.00 to 6.00.

Regarding `COc1cccc2c1SC(C(=O)N1CCCCC1)C(=O)N2CC(=O)NC1CCCCC1` (centres unmarked) [AVG-145], the negative logarithm of the EC50 (pEC50) was 5.00 to 6.00.

Regarding `O=C(CN1C(=O)C(C(=O)N2CCOCC2)Sc2ccccc21)NC1CCCCC1` (centres unmarked) [AVG-054, N-cyclohexyl-2-(2-(morpholine-4-carbonyl)-3-oxo-2H-benzo[b][1,4]thiazin-4(3H)-yl) acetamide], the negative-log EC50 (pEC50) was 5.00 to 6.00.

Consider `O=C(CN1C(=O)C(C(=O)N2CCCCC2)Sc2ccccc21)NCC1CCCCC1` (centres unmarked) [AVG-216], for which the pEC50 is 5.00 to 6.00.

`NC(=O)CN1C(=O)C(C(=O)N2CCCCC2)Sc2ccccc21` (centres unmarked) [AVG-113]: the pEC50 was less than 4.70.

Regarding `CC(NC(=O)CN1C(=O)C(C(=O)N2CCCCC2)Sc2ccccc21)c1ccccc1` (centres unmarked) [AVG-138], the pEC50 is 5.00 to 6.00.

Turning to `CCCCNC(=O)C1Sc2ccccc2N(CC(=O)NC2CCCCC2)C1=O` (centres unmarked) [AVG-086], the pEC50 was 4.70 to 5.00.

Consider `O=C(CN1C(=O)C(C(=O)N2CCCCC2)Sc2c(Cl)cccc21)NC1CCCCC1` (centres unmarked) [AVG-061], for which the pEC50 is 5.00 to 6.00.

Consider `CN1CCC(NC(=O)C2Sc3ccccc3N(CC(=O)NC3CCCCC3)C2=O)CC1` (centres unmarked) [AVG-085], for which the pEC50 was less than 4.70.

As to `O=C(CN1C(=O)C(C(=O)N2CCCCC2)Sc2ccccc21)Nc1ccncc1` (centres unmarked) [AVG-224], the negative-log EC50 (pEC50) is 4.70 to 5.00.

Turning to `O=C(CN1C(=O)C(C(=O)N2CCCCC2)Sc2cc(F)ccc21)NC1CCCCC1` (centres unmarked) [AVG-150], the pEC50 is 5.00 to 6.00.

As to `O=C(C1Sc2ccccc2N(Cc2nc3ccccc3o2)C1=O)N1CCCCC1` (centres unmarked) [AVG-111], the pEC50 is less than 4.70.

These data come from patent US11084796B2, “Heterocyclic derivatives for the treatment of RSV” (GEORGIA STATE UNIVERSITY RESEARCH FOUNDATION, INC., priority 2016, dated 2021).
